Experimental data reported in US10696989B2, “Biological method for preparing heme iron not derived from porcine blood” (INTRON BIOTECHNOLOGY, INC., priority 2017, dated 2020).

System: iron-deficiency-anemia-induced animals
Assay: Effectiveness of heme iron salt on alleviating anemia in iron-deficiency-anemia-induced rats
Format: in vivo, Sprague-Dawley rats
Settings: oral once a day, 0.1 mg Fe/500 μl saline
Description: The salt of the heme iron prepared according to the present invention was dissolved in saline and administered to iron-deficiency-anemia-induced animals, whereby the effectiveness of the salt of the heme iron prepared according to the present invention on alleviating anemia was evaluated. Specifically, thirty 7-week-old Sprague-Dawley rats (female) were divided into 3 groups of 10 rats per group, among which one group was fed with normal feed in an amount of 10% of body weight daily for one month (Group 1; control), and the remaining two groups were fed with iron-deficient feed in an amount of 10% of body weight daily for one month to induce iron-deficiency anemia (Group 2 and Group 3). After one month of feeding, it was confirmed that iron-deficiency anemia was induced in the individual rat belonging to Group 2 and Group 3. Then, one of the anemia-induced groups was orally administered once a day with saline alone (Group 2), and the other anemia-induced group was orally administered once a day with saline containing heme iron (0.1 mg Fe/500 μl saline) (Group 3). The administration continued for 30 days, and the occurrence of abnormal symptoms was monitored during the administration period. After 30 days of administration, blood was collected, and whether anemia was alleviated was evaluated. During 30 days of administration to Group 2 and Group 3, Group 1 was continuously fed with normal feed, and Group 2 and Group 3 were fed with iron-deficient feed. […]

[1] = female rats on iron-deficient feed, blood collected after 30 days

- Weight of rats on 30th day after administration (female rats on iron-deficient feed, 30 days): 265.2 ± 1.1 g
- Occurrence of abnormal symptoms during the administration period (30 days): no abnormal symptoms
Substance: heme iron
- Blood test: Hematocrit [1]: 35.8 ± 1.9%
- Blood test: Hemoglobin content [1]: 14.2 ± 0.4 g/dL
- Blood test: Mean corpuscular volume [1]: 48.2 ± 2.2 fL
- Blood test: RBC [1]: 8.59 ± 0.1 ×10^6/μl
- Alleviation of iron-deficiency anemia (conclusion) (30 days): effective at alleviating iron-deficiency anemia
